This assay deals with T1, Interleukin-5 (Mus musculus) (UniProt P04401).
T1 sequence (whole entry): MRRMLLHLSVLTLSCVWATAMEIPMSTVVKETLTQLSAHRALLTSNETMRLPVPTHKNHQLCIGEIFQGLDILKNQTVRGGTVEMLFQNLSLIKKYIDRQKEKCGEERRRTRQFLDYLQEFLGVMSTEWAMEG
Description: Inhibition of mouse IL5-mediated mouse Y16 cell proliferation at 30 uM after 48 hrs by WST1 assay. On the technique in general: Tetrazolium dyes change colour on reduction, which living cells bring about.
For orientation: inhibition means the percentage by which the read-out fell short of the control. Take `CC(=O)OCc1c(C2CCCCC2)oc2ccc(NCc3ccccc3)cc2c1=O`: the inhibition was determined as 78%. The figure for `CC(=O)OCc1c(-c2ccc(F)cc2)oc2ccc(NC(=O)c3ccccc3)cc2c1=O` is 12%; for `O=C(Nc1ccc2oc(C3CCCCC3)c(CO)c(=O)c2c1)C1CCCCC1` it is 9%.

For `O=C(Nc1ccc2oc(C3CCCCC3)c(CO)c(=O)c2c1)c1ccccc1`, the inhibition was 90%.

Turning to `CC(=O)OCc1c(-c2ccccc2)oc2ccc(NC(=O)c3cnccn3)cc2c1=O`, the inhibition was 15%. As to `CC(C)(C)C(=O)OCc1c(C2CCCCC2)oc2ccc(NC(=O)c3ccccc3)cc2c1=O`, the inhibition came out at 5%. Molecule `CC(=O)OCc1c(-c2ccccc2)oc2ccc(NC(=O)c3ccccc3)cc2c1=O` gave an inhibition of 79%. The figure for `O=C(Nc1ccc2oc(-c3ccccc3)c(CO)c(=O)c2c1)C1CCCCC1` is 35%; for `CC(C)C(=O)OCc1c(C2CCCCC2)oc2ccc(NC(=O)c3ccccc3)cc2c1=O` it is 71%. Regarding `CC(=O)OCc1c(C2CCCCC2)oc2ccc(NC(=O)c3ccccc3)cc2c1=O`, the inhibition came out at 95%. For `CC(=O)OCc1c(C2CCCCC2)oc2ccc(NC(=O)C3CCCCC3)cc2c1=O`, the inhibition came to 80%.

`CC(=O)OCc1c(C2CCCCC2)oc2ccc(NC(=O)Nc3ccccc3)cc2c1=O` had an inhibition of 25%. Molecule `O=C(Nc1ccc2oc(-c3ccc(F)cc3)c(CO)c(=O)c2c1)c1ccccc1` registered an inhibition of 19%. The molecule `CC(=O)OCc1c(-c2ccccc2)oc2ccc(NC(=O)C3CCCCC3)cc2c1=O` had an inhibition of 75%. The figure for `O=C(Nc1ccc2oc(-c3ccccc3)c(CO)c(=O)c2c1)c1cnccn1` is 23%; for `O=C(Nc1ccc2oc(-c3ccccc3)c(CO)c(=O)c2c1)c1ccccc1` it is 71%; for `CC(=O)OCc1c(C2CCCCC2)oc2ccc(NS(=O)(=O)c3ccccc3)cc2c1=O` it is 5%.

Values taken from ChEMBL document CHEMBL3400081, “Exploration of benzamidochromenone derivatives with conformational restrictor as interleukin-5 inhibitors” (Bioorg Med Chem, 2015).
